Results taken from US20230348564A1, “ANTI-CANCER PROTEINS” (UNICHEM LABORATORIES LTD, priority 2020, published 2023).

Columns and labels:
KB (Cervical cancer) = assay: Xenograft study; assay type: in vivo, mice; conditions: IP
Description: (§1) The Xenograft models used were HT-29, KB, PA-1, MCF-7, PANC-1, T24 and MDA-MB-231. The basic study design for the Xenograft study was as follows: • 1. Cell maintenance and cell suspension preparation • 2. Aseptic injection of tumor cell suspension in the donor animal • 3. Randomization of animals in respective groups • 4. IP dosing of test items in predetermined doses • 5. IP administration of standard • 6. After completion of dosing period. • 7. The Tumor volume recording weekly twice while body weight and clinical signs daily.

MCF-7 (Breast cancer) = assay: Xenograft study; assay type: in vivo, mice; conditions: MCF-7 xenograft, IP
Description: as §1

[1] = system: MDA-MB-231 (Mammary gland/breast adenocarcinoma); assay: Xenograft study; assay type: in vivo, mice; conditions: MDA-MB-231 xenograft, IP
Description: as §1

[2] = system: PA-1 (Ovary teratocarcinoma); assay: Xenograft study; assay type: in vivo, mice; conditions: PA-1 xenograft, IP
Description: as §1

[3] = system: T24 (Urinary bladder/transitional cell carcinoma); assay: Xenograft study; assay type: in vivo, mice; conditions: IP
Description: as §1

MDA-MB-231 = assay: Cell cycle analysis (PI stain); assay type: cell-based, Human; conditions: 24 h
Protocol: (§2) The cell lines were maintained in DMEM+10% FBS (heat inactivated) at 37° C. with 5% CO2, and 95% humidity. Antibiotics Penicillin (100 U/mL) and Streptomycin (100 μg/mL) were added to the medium.
(§3) The stock solution of recombinant lectin having the amino acid sequence of SEQ ID NO. […] Doxorubicin was used as positive control and stock solution was prepared in DMSO.
(§4) Cells were counted using hemocytometer and plated in culture plates at density of 0.5×10^6 cells/well in DMEM+10% FBS in 6-well plates. Cells were incubated overnight to allow the cell recovery and exponential growth. Following overnight incubation, cells were sera starved in DMEM+1% FBS for 4 h. […] Untreated cells were included as Control group for test item. Cells treated with Doxorubicin were included as Positive Control group. DMSO treated cells were included as control group for Doxorubicin. After treatment, cells were incubated for a time period of 24 h. Following incubation, the pro-apoptotic effect by cell cycle was determined as follows: Cell cycle reagent contains PI stain, which stains DNA of cells in different phases of cell cycle; Sub(G0/G1), G1, S, G2 and M. Cells in Sub(G0/G1) phase correspond to apoptotic cells.
(§5) Cells were gently harvested into pre-labeled centrifuge tubes and centrifuged at 450 g for 5 min, RT (low brake). The supernatants were removed carefully (not to touch the pellet) and discarded. 1 mL of 1×PBS was added to the pellet and resuspended gently to make homogenous suspension. Cells were centrifuged at 450 g for 5 min, RT (low brake) (washing step). The supernatant was carefully removed leaving behind approx 100 μL of PBS. Cells were resuspended gently yet thoroughly in residual PBS. Ice-cold 70% ethanol (300 μLI) was added drop-wise into cells in each tube while vortexing at low speed (fixation step). Cells were stored at 4° C. for 24 h prior to staining.
(§6) Ethanol fixed cells were centrifuged at 450 g for 5 min, RT (low brake). The supernatant was carefully removed (not to touch the pellet) and discarded. (The pellet might not be visible but makes a thin film on surface of tube). 1 mL of 1×PBS was added into pellet and resuspended gently. Cells were incubated for 1 min at RT. Cells were centrifuged at 450 g for 5 min, RT (low brake) (washing step). The supernatant was removed carefully leaving behind approx 20 μL-50 μL of PBS. 200 μL of Cell Cycle reagent was added into each tube.
(§7) Cells were resuspended gently, mixed and were incubated for 30 min, RT, Dark. The stained samples were transferred into 96-well plates and acquired on flow cytometer (Guava technologies). Percentage of cells in Sub (G0/G1) phase were determined. Fold increase in apoptotic cells (treated with Test Items) was determined as compared to Control (untreated cells).

PANC-1 = assay: Cell cycle analysis (PI stain); assay type: cell-based, Human; conditions: 24 h
Protocol: as §2, §3, §4, §5, §6, §7

Glioma (C6) = assay: cytotoxicity in Brain Tumor Cell lines by MTT assay; assay type: cell-based, Rat; conditions: 0.1 Mm-100 μM, 72 h
Protocol: The SEQ ID NO. […] Untreated cells were used as control. […] Cells were incubated for 3 h at 37° C.

COc1cccc2c1C(=O)c1c(O)c3c(c(O)c1C2=O)C[C@@](O)(C(=O)CO)C[C@@H]3O[C@H]1C[C@H](N)[C@H](O)[C@H](C)O1 [Doxorubicin, reference compound]
Maximum Tumor Growth Inhibition (%) (KB (Cervical cancer)): 64.60% | Tumor Volume (mm^3) (Mean ± SEM) (KB (Cervical cancer)): 616 ± 118 mm^3 | Maximum Tumor Growth Inhibition (%) (MCF-7 (Breast cancer)): 65.23% | Tumor Volume (mm^3) (Mean ± SEM) (MCF-7 (Breast cancer)): 771 ± 65 mm^3 | Maximum Tumor Growth Inhibition (%) [1]: 42.12% | Tumor Volume (mm^3) (Mean ± SEM) [1]: 808.47 ± 178.59 mm^3 | Maximum Tumor Growth Inhibition (%) [2]: 84.48% | Tumor Volume (mm^3) (Mean ± SEM) [2]: 631 ± 87 mm^3 | Maximum Tumor Growth Inhibition (%) [3]: 59.07% | Tumor Volume (mm^3) (Mean ± SEM) [3]: 366.32 ± 34.28 mm^3 | % Population of cells, Apoptotic Sub(G0/G1) (MDA-MB-231; 10 μM): 11.09% | % Population of cells, G0/G1 (MDA-MB-231; 10 μM): 40.26% | % Population of cells, G2/M (MDA-MB-231; 10 μM): 18.52% | % Population of cells, S (MDA-MB-231; 10 μM): 22.70% | % Population of cells, Apoptotic Sub(G0/G1) (MDA-MB-231; 100 μM): 92.02% | % Population of cells, G0/G1 (MDA-MB-231; 100 μM): 5.64% | % Population of cells, G2/M (MDA-MB-231; 100 μM): 0.83% | % Population of cells, S (MDA-MB-231; 100 μM): 1.17% | % Population of cells, Apoptotic Sub(G0/G1) (PANC-1; 10 μM): 14.74% | % Population of cells, G0/G1 (PANC-1; 10 μM): 15.84% | % Population of cells, G2/M (PANC-1; 10 μM): 27.44% | % Population of cells, S (PANC-1; 10 μM): 18.45% | % Population of cells, Apoptotic Sub(G0/G1) (PANC-1; 100 μM): 89.13% | % Population of cells, G0/G1 (PANC-1; 100 μM): 9.65% | % Population of cells, G2/M (PANC-1; 100 μM): 0.15% | % Population of cells, S (PANC-1; 100 μM): 0.59% | % of cytotoxicity (Glioma (C6)): 57.8%-86.3%
